Assays:
[1] = Average particle size (ζ-Average) and PDI by dynamic light scattering (Zetasizer Nano ZSP); format: physicochemical; settings: for Particle size (nm), immediately after the preparation: pDNA (eGFP)-loaded LNP
How it was run: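 Lipid nanoparticles dispersed in PBS(−) were sized by dynamic light scattering, giving the ζ-Average diameter and polydispersity index (PDI).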

[2] = siRNA/mRNA encapsulation rate by Ribogreen reagent (section IV); format: physicochemical; settings: for % siRNA encapsulation: F7siRNA-loaded LNP, 50:10:38.5:1.5, N/P ratio 6; for % mRNA encapsulation: FlucmRNA-loaded LNP, 50:10:38.5:1.5
How it was run: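 LNPs diluted in TE buffer to 8 μg/mL nucleic acid for surface RNA, or to 1.2 μg/mL with 1% Triton X-100 for total RNA. RiboGreen fluorescence (ex 485/em 528 nm) quantified against a Triton-containing standard curve (0-2.5 μg/mL). Encapsulation % = (total − surface)/total × 100.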

liver = assay: In vivo Fluc activity of FlucmRNA-loaded LNP by in vivo imaging, liver; settings: Balb/c mice, 6 hours; for Fluc Activity in liver: FlucmRNA-loaded LNP i.v. 0.1 mg mRNA/kg
How it was run: (§1)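 Female Balb/c mice, 7 weeks old, received LNP i.v. at 0.1 mg mRNA/kg. At 6 h, luciferin was given via tail vein at 1.5 mg per mouse, and liver and spleen luminescence was imaged as Avg Radiance [p/s/cm2/sr] near 560 nm.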

spleen = assay: In vivo Fluc activity of FlucmRNA-loaded LNP by in vivo imaging, spleen; settings: Balb/c mice, 6 hours; for Fluc Activity in spleen: FlucmRNA-loaded LNP i.v. 0.1 mg mRNA/kg
How it was run: as §1

F7 = assay: In vivo F7 knockdown, plasma F7 enzyme activity (BIOPHEN FVII), Balb/c mice; settings: i.v. 0.025 mg siRNA/kg, plasma at 24 hours, untreated mice as 100%
How it was run: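 Female Balb/c mice, 5 weeks old, received F7 siRNA lipid nanoparticles i.v. at 0.025 mg siRNA/kg; plasma F7 activity measured chromogenically (BIOPHEN FVII) 24 h later. Values are % of untreated mice, also expressed as a ratio to MC3-containing nanoparticles set at 1.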

[3] = pDNA encapsulation rate by Picogreen reagent; format: physicochemical; settings: pDNA (eGFP)-loaded LNP
Experimental: The encapsulation rate of pDNA of the lipid nanoparticles was measured using Picogreen (registered trademark) reagent (Quant-iT™ dsDNA Assay Kit, broad range, manufactured by Thermofisher Scientific). In encapsulation rate measurement of pDNA, the nucleic acid concentration in solution for measuring nanoparticle surface nucleic acid concentration was set at 1.6 μg/mL, the nucleic acid concentration in solution for measuring total nucleic acid concentration […], and the nucleic acid concentration used for calibration curve 0-0.5 μg/mL, and the same method as the method for measuring encapsulation rate of siRNA and mRNA was carried out except that Picogreen (registered trademark) reagent (Quant-iT™ dsDNA Assay Kit, broad range, manufactured by Thermofisher Scientific) was used as measurement reagent. Encapsulation rate %=(nucleic acid concentration in solution for measuring total nucleic acid concentration (μg/mL)−nucleic acid concentration in solution for measuring nanoparticle surface nucleic acid concentration (μg/mL))/(nucleic acid concentration in solution for measuring total nucleic acid concentration (μg/mL))×100. <Results>

[4] = Stability of pDNA-loaded LNP standing at 40° C.; format: physicochemical; settings: for Quality 40° C. 1 M / Quality 40° C. 1 W: pDNA-loaded LNP; for Particle size (nm), 40° C. 1 M / encapsulation rate (%), 40° C. 1 M: pDNA-loaded LNP after standing at 40° C. 1 M; for Particle size (nm), 40° C. 1 W / encapsulation rate (%), 40° C. 1 W: pDNA-loaded LNP after standing at 40° C. 1 W
Experimental: Prepared lipid nanoparticles were allowed to stand at 40° C., and after keeping for each period, they were evaluated whether quality was well remained according to the following criteria: • Good (O): particle size is within +/−20 nm of the particle size immediately after preparation, and PDI is 0.2 or less, and encapsulation rate is 80% or more; • No good (X): particle size is greater than +/−20 nm of the particle size immediately after preparation, or encapsulation rate is less than 80%.
The lipid nanoparticles which remain in good quality with standing at 40° C. for one week or more can be evaluated as having excellent stability.

[5] = Storage stability of FlucmRNA-loaded LNP at −80, 5, 25 and 40° C.; format: physicochemical; settings: for period for which quality remained good, −80° C.: maximum storage period 1 week; for period for which quality remained good, 5° C. / period for which quality remained good, 25° C. / period for which quality remained good, 40° C. (weeks): maximum storage period 5 weeks
How it was run: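 FlucmRNA-loaded LNPs held at −80, 5, 25 or 40° C; at each time point size, PDI and encapsulation measured. Quality deemed maintained while size stays within ±20 nm of preparation day, PDI ≤0.2 and encapsulation ≥80%; value is the period meeting all three.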

[6] = F7siRNA-loaded LNP, 50:10:38.5:1.5, N/P ratio 6
[7] = FlucmRNA-loaded LNP, 50:10:38.5:1.5
[8] = FlucmRNA-loaded LNP, lipid:DSPC:cholesterol:DMG-PEG2K 50:10:38.5:1.5
[9] = 0.1 mg mRNA/kg, versus LNP comprising CL4F6 (Tables 5 and 6)

PDI [1, 6]	ζ-Average (nm) [1, 6] [nm]	PDI [1, 7]	ζ-Average (nm) [1, 8] [nm]	Particle size (nm), immediately after the preparation ([1]; 50:10:38.5:1.5) [nm]	% siRNA encapsulation [2] [%]	% mRNA encapsulation [2] [%]	encapsulation rate (%), immediately after the preparation [3] [%]	Quality 40° C. 1 M [4]	Quality 40° C. 1 W [4]	Particle size (nm), 40° C. 1 M [4] [nm]	encapsulation rate (%), 40° C. 1 M [4] [%]	Particle size (nm), 40° C. 1 W [4] [nm]	encapsulation rate (%), 40° C. 1 W [4] [%]	period for which quality remained good, −80° C. [5] [week]	period for which quality remained good, 5° C. [5] [weeks]	period for which quality remained good, 25° C. [5] [weeks]	Compound	Fluc Activity in liver (liver)	Fluc Activity in spleen (spleen)	F7 enzyme activity (%) (F7)	further results
0.020	97.03	0.004	81.30	98.2	99.9	99.2	98.1	∘	∘	101.4	98.1	97.1	98.0	1	5	5	CCCCCCCC(CCCCCCC)C(=O)OCCCCCCC(O)(CCCCCCOC(=O)C(CCCCCCC)CCCCCCC)CCCCN(CCC)CCC [CL4F 9-7]	1.55E+08 Avg Radiance [p/s/cm2/sr]	2.43E+06 Avg Radiance [p/s/cm2/sr]	4.3	Fluc activity in the liver, compared with CL4F6 (liver; [9]): higher Fluc activity; period for which quality remained good, 40° C. (weeks) [5]: 5 weeks
0.006	98.70	0.021	84.62	101.6	100.1	99.7	98.2	∘	∘	104.2	98.5	101.0	98.3	1	5	5	CCCCCCCCC(CCCCC)C(=O)OCCCCCCC(O)(CCCCCCOC(=O)C(CCCCC)CCCCCCCC)CCCCN(CCC)CCC (centres unmarked) [CL4F 10-5]	1.06E+08 Avg Radiance [p/s/cm2/sr]	4.64E+06 Avg Radiance [p/s/cm2/sr]	3	Fluc activity in the spleen, compared with CL4F6 (spleen; [9]): higher Fluc activity; period for which quality remained good, 40° C. (weeks) [5]: 5 weeks
